In ChEMBL document CHEMBL1137070, “Novel galbonolide derivatives as IPC synthase inhibitors: design, synthesis and in vitro antifungal activities” (2004):
Values after ≈ are worked out from the molar mass of the structure shown.

Experiments:
Format in all cases: functional
[1] = system: Cryptococcus neoformans; test: In vitro antifungal activity against Cryptococcus neoformans ATCC 9011; activity expressed as minimum inhibitory concentration
[2] = system: Candida albicans; test: In vitro antifungal activity against Candida albicans ATCC 90028; activity expressed as minimum inhibitory concentration
[3] = system: Aspergillus fumigatus; test: In vitro antifungal activity against Aspergillus fumigatus TIMM1776; activity expressed as minimum inhibitory concentration
[4] = system: Candida albicans; test: In vitro antifungal activity against Candida albicans ATCC 90028
[5] = system: Cryptococcus neoformans; test: In vitro antifungal activity against Cryptococcus neoformans ATCC 9011
[6] = system: Saccharomyces cerevisiae; test: In vitro antifungal activity against Saccharomyces cerevisiae Y9
[7] = system: Aspergillus fumigatus; test: In vitro antifungal activity against Aspergillus fumigatus TIMM1776
[8] = system: Saccharomyces cerevisiae; test: In vitro antifungal activity against Saccharomyces cerevisiae Y9; activity expressed as minimum inhibitory concentration

Compound	MIC [1] [µg/mL]	MIC [2] [µg/mL]	MIC [3] [µg/mL]	IC80 [4] [µg/mL]	IC80 [5] [µg/mL]	IC80 [6] [µg/mL]	IC80 [7] [µg/mL]	MIC [8] [µg/mL]
C=C1/C=C(\C)[C@H](CC)OC(=O)[C@H](C)C(=O)[C@@](O)(CO)[C@@H](OC)/C=C/[C@@H](C)C1	> 64	> 64	> 64					
OC(Cn1cncn1)(Cn1cncn1)c1ccc(F)cc1F [FLUCONAZOLE]				0.5 (≈ 1.63 µM)	8 (≈ 26.1 µM)	8 (≈ 26.1 µM)	> 64	
C[C@@H]1[C@H](O)[C@@H](C)/C=C/C=C/C=C/C=C/C=C/C=C/C=C/[C@H](O[C@@H]2O[C@H](C)[C@@H](O)[C@H](N)[C@@H]2O)C[C@@H]2O[C@](O)(C[C@@H](O)C[C@@H](O)[C@H](O)CC[C@@H](O)C[C@@H](O)CC(=O)O[C@H]1C)C[C@H](O)[C@H]2C(=O)O [AMPHOTERICIN B]	0.25 (≈ 0.271 µM)	0.25 (≈ 0.271 µM)	1 (≈ 1.08 µM)					0.25 (≈ 0.271 µM)
C=C1/C=C(\C)[C@H](CC)OC(=O)[C@H](C)C(=O)[C@@](O)(CO)C/C(C)=C/[C@@H](C)C1	> 64	> 64	> 64		32 (≈ 87.8 µM)			> 64
C=C1/C=C(\C)[C@H](CC)OC(=O)[C@H](C)C(=O)[C@@](O)(CO)C/C(OCC(F)(F)F)=C/[C@@H](C)C1	32 (≈ 71.4 µM)	> 64	64 (≈ 143 µM)					
C=C1/C=C(\C)[C@H](CC)OC(=O)[C@H](C)C(=O)[C@@](O)(CO)[C@H](OC)/C=C/[C@@H](C)C1	> 64	> 64	> 64					
C=C1/C=C(\C)[C@H](CC)OC(=O)[C@@H](C)C(=O)[C@@](O)(CO)C/C(OC)=C/[C@@H](C)C1	> 64	> 64	> 64					> 64
C=C1/C=C(\C)[C@H](CC)OC(=O)[C@H](C)C(=O)[C@@](O)(CO)C/C(OC)=C/[C@@H](C)C1	0.063 (≈ 0.166 µM)	4 (≈ 10.5 µM)	> 64	1 (≈ 2.63 µM)	< 0.031	0.5 (≈ 1.31 µM)		1 (≈ 2.63 µM)
C=C1/C=C(\C)[C@H](CC)OC(=O)[C@H](C)C(=O)[C@@](O)(CO)C/C(Cl)=C/[C@@H](C)C1	16 (≈ 41.6 µM)	> 64	> 64	64 (≈ 166 µM)	0.15 (≈ 0.39 µM)			
C=C1/C=C(\C)[C@H](CC)OC(=O)[C@H](C)C(=O)[C@@](O)(CO)C/C=C/[C@@H](C)C1	> 64	> 64	> 64					
C=C1/C=C(\C)[C@H](CC)OC(=O)[C@H](C)C(=O)[C@@](O)(CO)C/C(SC)=C/[C@@H](C)C1	0.5 (≈ 1.26 µM)	64 (≈ 161 µM)	> 64	16 (≈ 40.3 µM)	0.063 (≈ 0.159 µM)	32 (≈ 80.7 µM)		64 (≈ 161 µM)
